Measurements: patent US20250197368A1 (priority 2020, published 2025)
“And” between values parts separate entries of the source, which are not always exact repeats. Equal values may be shown once.

Legend:
[1] = test system: rat brain benzodiazepine binding sites on GABAAR; experiment: Rat brain receptor occupancy assay ([3H]flumazenil binding); type: in vivo; conditions: for occupancy of rat brain GABAA receptors (benzodiazepine binding sites): mean±SEM
Procedure: The occupancy of rat brain benzodiazepine binding sites on GABAAR by compound was measured by its ability to inhibit the ex vivo binding of [^3H]Ro15-1788 ([^3H] flumazenil) in brain samples from rats dosed with the test compound.
Male Sprague Dawley rats (c. 200-300 g) were used for the studies. All animals were acclimatized 5-7 days before dosing and were handled and weighed prior to treatments.
Rats (3 to 6 per group) were dosed p.o. with either the vehicle or the test compound suspended in vehicle (doses of 0.1 to 10 mg/kg) at a volume of 5 mL per kg of body weight. To block all benzodiazepine binding sites and therefore define the level of non-specific binding of [^3H]Ro15-1788, a separate group of animals received a dose of 5 mg/kg p.o. of bretazenil (5 mL/kg) made up in 70% PEG, 30 minutes before the animals were killed.
At predetermined time intervals, animals were culled via stunning and cervical dislocation. Brain tissues were harvested promptly, and each left and right hemisphere were snap frozen and stored at −80° C.
On the day of the brain samples analysis, each left hemisphere was weighed and homogenized in 8 volumes of ice-cold 10 mM potassium phosphate buffer (pH 7.4). 300 μL of the mixture was further diluted by adding it to a tube containing 1050 μL of assay buffer and [^3H] flumazenil further added to make a total volume of 1500 μL and achieve a final concentration of 4 nM, mixing immediately and incubating on ice.
Following 20 seconds incubation time, the sample was rapidly filtered through Whatman GF/B filter in triplicates (500 μL/filter) using a vacuum filtration manifold. The filters were subsequently washed with 10 mL of ice cold 50 mM Tris buffer (pH 7.4) and then placed into scintillation vials containing scintillation fluid. Filter-bound radioactivity was counted on a TriCarb2900 scintillation counter.
In each experiment, the value of nonspecific binding defined using bretazenil was subtracted from all groups to give values of specific binding.
The percent GABAAR occupancy of the test compound at a specific dose and treatment time was calculated as the percentage by which the specific binding in the vehicle treated group was inhibited by the drug. Therefore, the % occupancy of the modulator in drug-treated animals was expressed as: 100−((Average test compound−Average bretazenil)/(Average vehicle−Average Bretazenil)*100) where ‘average test compound’, ‘average bretazenil’ and ‘average vehicle’ are the average counts in test compound-, bretazenil- and vehicle-treated animals, respectively.

[2] = test system: Male Sprague Dawley rats; experiment: Elevated plus maze assay; type: in vivo; conditions: for percent time spent on open arms versus vehicle treated rats: rat; for effect in the rat elevated plus maze assay: dosed orally
Text: The method, which detects anxiolytic activity, follows that described by Handley and Mithani (Naunyn. Schmied. Arch. Pharmacol., 327, 1-5, 1984). Rodents avoid open spaces (the open arms of an elevated plus-maze). Anxiolytics increase exploratory activity in the open arms, as indicated by increased time spent on the open arms and/or by increased % open-arm entries.
The maze was made from black matte acrylic and consisted of 4 arms of equal length and width (50×10 cm) arranged in the form of a plus sign (+). Two opposite arms were enclosed by 40 cm high walls (closed arms). The two other arms have no walls (open arms). The maze was raised approximately 65 cm above the floor.
Male Sprague Dawley rats (c. 200-300 g) were used for the study. 13 to 15 rats were studied per group.
Compounds were evaluated at three or four doses, administered p.o. 30 minutes to 2 hours before the test, at 5 mL per kg of body weight and its effects compared with vehicle-treated group.-Chlordiazepoxide hydrochloride (5 mg/kg, prepared in 0.9% saline), administered i.p. 30 minutes before the test, was used as reference substance to compare with the vehicle treated group.
The day before the test, rats were weighed. The compounds were prepared at least 24 hours before the test day. 30 minutes after dosing, each rat was placed in the centre of the apparatus and its behaviour was recorded for 5 minutes. The animals' behaviour on the maze was tracked using a camera mounted above the maze and the image analysed using EthoVision XT 13 video tracking software.
The percentage of time spent in the open arms was calculated by dividing the time spent on open arms to the total time in the maze.
Data were analysed by comparing treated groups with vehicle control group using one-way ANOVA followed by post-hoc Dunnett's tests.

Q: For `CCCNC(=O)c1c(N)c2cccc(-c3cnccc3OC)c2[nH]c1=O` [Example 17, 4-Amino-8-(4-methoxy-3-pyridyl)-2-oxo-N-propyl-1H-quinoline-3-carboxamide], which “occupancy of rat brain GABAA receptors (benzodiazepine binding sites)” value ([1]; 10 mg/kg p.o.) is on record?
A: The value was 101+0.5% and 101±0.5%.

Q: And the “occupancy of rat brain benzodiazepine binding sites, dose dependence” value ([1]; doses 0.1 to 10 mg/kg p.o.)?
A: Its value is “dose-dependent”.

Q: And the “percent time spent on open arms versus vehicle treated rats” value ([2]; 1, 3, and 10 mg/kg p.o.)?
A: The value was “significantly higher”.

Q: What about the “effect in the rat elevated plus maze assay” value [2] of the same molecule?
A: Its value is “anxiolytic-like effects”.

Q: Which results are given for `CCCNC(=O)c1c(N)c2cccc(-c3cnc(C)cc3OC)c2[nH]c1=O` [Example 18, 4-Amino-8-(4-methoxy-6-methyl-3-pyridyl)-2-oxo-N-propyl-1H-quinoline-3-carboxamide]?
A: occupancy of rat brain benzodiazepine binding sites, dose dependence ([1]; doses 0.3 to 10 mg/kg p.o.): dose-dependent; percent time spent on open arms versus vehicle treated rats ([2]; 1 and 3 mg/kg p.o.): significantly higher; effect in the rat elevated plus maze assay [2]: anxiolytic-like effects

Q: Which “occupancy of rat brain GABAA receptors (benzodiazepine binding sites)” value ([1]; 1 mg/kg p.o.) does the source give for `CCCNC(=O)c1c(N)c2cccc(-c3nc(C)ncc3F)c2[nH]c1=O` [Example 40, 4-Amino-8-(5-fluoro-2-methyl-pyrimidin-4-yl)-2-oxo-N-propyl-1H-quinoline-3-carboxamide] here?
A: The value was 97.3±2.0%.

Q: And the “occupancy of rat brain benzodiazepine binding sites, dose dependence” value ([1]; doses 0.1 to 10 mg/kg p.o.)?
A: The value was “dose-dependent”.

Q: What about the “percent time spent on open arms versus vehicle treated rats” value ([2]; 0.3, 1 and 3 mg/kg p.o.) of the same molecule?
A: The value was “significantly higher”.

Q: And the “effect in the rat elevated plus maze assay” value [2]?
A: The value was “anxiolytic-like effects”.
